{"source": "ChEMBL document CHEMBL3272201", "about": "“Synthesis of tetrazole ribonucleosides and their evaluation as antiviral agents” (J Med Chem, 1976)", "type_in_all_cases": "functional, organism-based", "key": {"Influenza A virus [1]": {"tested_on": "Influenza A virus", "test": "(§1) Antiviral activity against Influenza A virus (A2/Asian/J305) infected in Swiss albino mouse assessed as increase in host survival at 100 mg/kg, ip administered 4 hrs before infection, 1 hr after infection followed by twice daily for next 6 days for total of 14 treatments measured on 21st day post-infection", "set-up": "dose 100 mg/kg"}, "Influenza A virus [2]": {"tested_on": "Influenza A virus", "test": "as §1, with “25” for “100”", "set-up": "dose 25 mg/kg"}, "Influenza A virus [3]": {"tested_on": "Influenza A virus", "test": "as §1, with “20” for “100”", "set-up": "dose 20 mg/kg"}}, "note": "Active and inactive are the calls of the source. The calls are words filed in the database; no cut-off is given here."}
{"smiles": "NC(=O)c1nnnn1[C@@H]1O[C@H](CO)[C@@H](O)[C@H]1O", "values": [{"measurement": "Activity", "setting": "Influenza A virus [1]", "result": "inactive"}]}
{"smiles": "OC[C@H]1O[C@@H](n2cnnn2)[C@H](O)[C@@H]1O", "values": [{"measurement": "Activity", "setting": "Influenza A virus [1]", "result": "inactive"}]}
{"smiles": "NC(=O)Cc1nnnn1[C@@H]1O[C@H](CO)[C@@H](O)[C@H]1O", "values": [{"measurement": "Activity", "setting": "Influenza A virus [2]", "result": "inactive"}]}
{"smiles": "NC(=O)c1ncn([C@@H]2O[C@H](CO)[C@@H](O)[C@H]2O)n1", "values": [{"measurement": "Activity", "setting": "Influenza A virus [3]", "result": "Active"}]}
